# Experimental data taken from US20090274738A1, “IMPLANTABLE DEVICES FOR PROMOTING REENDOTHELIALIZATION AND METHODS OF USE THEREOF” (priority 2008, published 2009).
# What was measured:
# [1] = system: foetal bovine aortic endothelial cell; conditions: cited from earlier work
# [2] = assay type: in vivo
# Method: Tissue samples and stents were analyzed for each animal for estrogen content. The right coronary artery (RCA) and the left anterior descending artery (LAD) were opened longitudinally and cut into 6 pieces; 2 in the proximal region, 2 in the medial region and 2 in the distal region of the stented segment. One piece in each region was analyzed and the other one was kept as a backup. To evaluate the migration of E2 through the arterial wall, the left circumflex artery (LCX) was dissected to separate the adventitia from the rest of the artery and the two fractions were analyzed individually. […] After centrifugation, sera were collected for extraction and analysis by GC/MS.
# Hormones Deuterium-labeled estradiol 2,4,16,16,17-D5 (17β-D5) (CDN Isotopes, Pointe Claire, Canada) and micronized estradiol (USP, Xenex labs, Coquitlam, Canada) were used respectively as internal and external controls.
# Extraction of steroids—17β-estradiol extraction in pig serum. Blood samples of 8.5 mL were collected at specific time from each animal in the coronary sinus using an 8 French guiding catheter at baseline, 10 min and 1 hr after stent implantation and at sacrifice. Samples were centrifuged at 1800 rpm at 4° C. for 10 minutes. […]
# Estrogen quantification data Estrogen quantification was performed by Gas Chromatography/Mass Spectroscopy (GC/MS) as described above. Diffusion of E2 from the stent was determined in tissue in direct contact with the stent (coronary tissues proximal, medial, distal (see FIG. 9)), in close proximity (reference proximal, reference distal, adventitia, peri-coronary muscle, peri-coronary white fat (see FIG. 10)) or at distal sites potentially exposed to E2 released from the stent into the blood (carotid artery, femoral artery, apex, auricle, lung, kidney and liver). To obtain the total amount of E2 in an artery, E2 content measured by GC/MS in the proximal, medial and distal portions of each stented coronary segment were added together. […] The E2 content of the total adventitia dissected from each RCA was also determined.
# [3] = system: endothelial progenitor cell; conditions: cited from earlier work
# [4] = Tissue uptake of estradiol administered locally with a catheter; assay type: in vivo; conditions: 10 mg administered with a catheter over a few seconds
# Method: Stents and hormone used for the procedures The polymer poly (ester-amide) (PEA)/estradiol (E2) stents used in Examples presented herein were prepared by MicroPort (MicroPort Medical Co, Ltd. Shanghai). Stainless steel bare metal stents were of 18 mm and 23 mm length and were spray coated by MicroPort with 300 μg or 500 μg of E2 matrixed with MediVas™ poly (ester-amide) (MVPEA.I.(Ac)) tempo polymer. […] The sizes of Cypher™ stents were; 3×18 mm, 3.5×18 mm, 3×23 mm, 3.5×23 mm (Johnson & Johnson). The sizes of Taxus™ stents were 2.25×12 mm, 3×16 mm, 3.5×16 mm, 3×24 mm, 3.5×24 mm (Boston Scientific). The estradiol (USP) used to load the polymer poly (ester-amide) (PEA)/E2 stents was bought from Xenex labs (Coquitlam, Canada) and send to Microport. The estradiol used for local delivery by catheter in the objective 2 was the water soluble form coupled with hydroxypropyl-heta-cyclodextrin (HPCD).
smiles,measurement,setting,value
"C[C@]12CC[C@@H]3c4ccc(O)cc4CC[C@H]3[C@@H]1CC[C@@H]2O [estradiol, 17-β-Estradiol]",concentration at which enhancement of foetal bovine aortic endothelial cell growth was lost,[1],≥ 100 nM
same,penetration of estradiol through the arterial wall,"[2]; detected in adventitia, peri-coronary muscle and white fat tissues",deep penetration
same,mean concentration of estradiol in coronary tissue,"[2]; first 48 hours, 500 μg E2 stent",12.0 μg/g of tissue
same,E2 concentration in tissues at distal location from stent,[2]; in vivo,at baseline level
same,concentration with strong negative effect on endothelial progenitor cell growth,[3],≥ 10 µM
same,amount in the tissue overall,[4],51 µg
same,fraction of dose up-taken by the tissue,[4],0.51%
